Data reported in ChEMBL document CHEMBL4387729, “Synthesis and structure-activity relationship of 4-alkoxy-thieno[2,3-b]pyridine derivatives as potent alkaline phosphatase enhancers for osteoporosis treatment” (Bioorg Med Chem Lett, 2019).
In brackets after ≈: the same amount, converted by molar mass. Values belong to the compound of their own block, whether it stands above or below them. Activity calls are given as the source filed them. The calls are words filed in the database; no cut-off is given here.

Experiments:
[1] = target: T1, Alkaline phosphatase, tissue-nonspecific isozyme (Mus musculus) (UniProt P09242); test: Induction of alkaline phosphatase activity in mouse ST-2 cells after 4 days by spectrophotometric method; assay type: cell-based
T1 sequence (whole entry): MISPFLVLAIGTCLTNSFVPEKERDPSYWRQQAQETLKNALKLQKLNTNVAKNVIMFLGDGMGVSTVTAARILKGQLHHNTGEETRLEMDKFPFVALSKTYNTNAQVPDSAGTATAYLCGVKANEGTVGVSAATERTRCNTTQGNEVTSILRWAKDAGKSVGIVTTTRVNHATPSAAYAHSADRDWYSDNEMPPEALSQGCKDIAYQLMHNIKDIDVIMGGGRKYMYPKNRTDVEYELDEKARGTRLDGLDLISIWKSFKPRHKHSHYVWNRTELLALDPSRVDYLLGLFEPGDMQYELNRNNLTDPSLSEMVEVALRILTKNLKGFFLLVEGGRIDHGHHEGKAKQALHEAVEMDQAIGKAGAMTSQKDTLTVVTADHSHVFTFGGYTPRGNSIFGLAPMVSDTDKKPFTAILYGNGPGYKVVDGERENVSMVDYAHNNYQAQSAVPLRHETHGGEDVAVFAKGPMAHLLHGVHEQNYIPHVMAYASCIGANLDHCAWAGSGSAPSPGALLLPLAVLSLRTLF

[2] = Metabolic stability in rat liver microsomes assessed as parent compound remaining after 30 mins; assay type: ADME, Microsome; conditions: read-out: Stability
[3] = Solubility of the compound in pH 6.8 JP2 solution; assay type: physicochemical
[4] = Metabolic stability in human liver microsomes assessed as parent compound remaining after 30 mins; assay type: ADME, Microsome; conditions: read-out: Stability
CYP3A4 [5] = target: T2, CYP3A4 (Homo sapiens, UniProt P08684); test: in vitro; conditions: human liver microsomes
T2 sequence (P08684 whole entry): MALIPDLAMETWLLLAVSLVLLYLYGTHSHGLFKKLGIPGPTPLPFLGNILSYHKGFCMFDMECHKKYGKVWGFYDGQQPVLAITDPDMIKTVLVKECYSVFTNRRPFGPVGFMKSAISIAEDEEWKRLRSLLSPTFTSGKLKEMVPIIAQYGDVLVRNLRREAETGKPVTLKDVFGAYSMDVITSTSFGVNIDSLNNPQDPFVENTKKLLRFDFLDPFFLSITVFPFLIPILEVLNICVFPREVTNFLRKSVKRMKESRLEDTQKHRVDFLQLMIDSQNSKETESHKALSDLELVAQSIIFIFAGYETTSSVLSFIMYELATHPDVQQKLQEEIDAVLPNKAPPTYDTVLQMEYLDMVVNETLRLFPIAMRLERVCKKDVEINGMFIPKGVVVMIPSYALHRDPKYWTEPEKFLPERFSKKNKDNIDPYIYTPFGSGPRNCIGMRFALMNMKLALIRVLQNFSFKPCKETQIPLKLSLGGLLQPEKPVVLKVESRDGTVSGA
Description: Time dependent inhibition of CYP3A4 in human liver microsomes assessed as enzyme residual activity at 100 uM relative to control

CYP3A4 [6] = target: T2, CYP3A4; test: in vitro
CYP2C19 = CYP2C19 (Homo sapiens, UniProt P33261); test: Inhibition of CYP2C19 (unknown origin) at 10 uM relative to control; assay type: ADME
CYP2C19, sequence (P33261 whole entry): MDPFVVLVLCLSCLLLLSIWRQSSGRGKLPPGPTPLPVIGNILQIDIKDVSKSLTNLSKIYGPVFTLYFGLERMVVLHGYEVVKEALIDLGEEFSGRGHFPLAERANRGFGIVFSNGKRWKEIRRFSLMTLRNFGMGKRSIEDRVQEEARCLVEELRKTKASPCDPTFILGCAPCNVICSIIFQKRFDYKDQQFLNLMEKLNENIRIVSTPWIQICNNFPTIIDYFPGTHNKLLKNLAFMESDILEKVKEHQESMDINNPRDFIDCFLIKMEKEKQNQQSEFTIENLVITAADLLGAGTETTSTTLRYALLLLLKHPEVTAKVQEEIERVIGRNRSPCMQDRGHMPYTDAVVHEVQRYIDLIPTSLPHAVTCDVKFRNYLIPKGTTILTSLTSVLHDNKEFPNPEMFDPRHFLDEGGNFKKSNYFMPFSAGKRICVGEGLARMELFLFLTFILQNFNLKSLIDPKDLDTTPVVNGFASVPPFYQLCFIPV

CYP2C9 = CYP2C9 (Homo sapiens, UniProt P11712); test: Inhibition of CYP2C9 (unknown origin) at 10 uM relative to control; assay type: ADME
CYP2C9, sequence (P11712 whole entry): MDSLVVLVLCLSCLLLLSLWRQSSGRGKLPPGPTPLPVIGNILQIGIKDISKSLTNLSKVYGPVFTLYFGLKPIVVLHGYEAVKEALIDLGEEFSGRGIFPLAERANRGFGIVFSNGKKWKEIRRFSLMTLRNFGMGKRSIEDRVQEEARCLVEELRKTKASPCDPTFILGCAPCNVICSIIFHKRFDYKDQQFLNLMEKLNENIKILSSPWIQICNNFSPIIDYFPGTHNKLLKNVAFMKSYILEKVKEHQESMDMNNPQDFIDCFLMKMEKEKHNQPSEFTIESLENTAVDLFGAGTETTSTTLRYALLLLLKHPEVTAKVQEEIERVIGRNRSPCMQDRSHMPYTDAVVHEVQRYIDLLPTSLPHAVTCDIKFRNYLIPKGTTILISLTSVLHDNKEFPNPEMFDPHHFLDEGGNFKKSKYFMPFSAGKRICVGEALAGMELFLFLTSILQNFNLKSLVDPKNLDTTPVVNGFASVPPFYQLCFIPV

CYP1A2 = target: T3, CYP1A2 (Homo sapiens, UniProt P05177); test: Inhibition of CYP1A2 (unknown origin) at 10 uM relative to control; assay type: ADME
T3 sequence (P05177 whole entry): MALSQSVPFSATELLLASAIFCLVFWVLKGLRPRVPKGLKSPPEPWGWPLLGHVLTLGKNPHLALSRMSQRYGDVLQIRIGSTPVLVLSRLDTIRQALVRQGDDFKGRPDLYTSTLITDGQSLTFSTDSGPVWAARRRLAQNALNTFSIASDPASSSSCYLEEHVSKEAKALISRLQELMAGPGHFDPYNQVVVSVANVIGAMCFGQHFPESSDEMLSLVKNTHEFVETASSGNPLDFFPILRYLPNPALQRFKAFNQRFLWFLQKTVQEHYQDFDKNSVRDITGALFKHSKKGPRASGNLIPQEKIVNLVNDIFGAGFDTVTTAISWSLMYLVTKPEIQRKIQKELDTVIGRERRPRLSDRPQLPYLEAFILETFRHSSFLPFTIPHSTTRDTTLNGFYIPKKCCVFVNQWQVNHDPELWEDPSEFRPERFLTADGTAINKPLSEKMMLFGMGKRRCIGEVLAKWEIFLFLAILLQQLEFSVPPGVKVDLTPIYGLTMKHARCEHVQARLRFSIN

CYP2D6 = CYP2D6 (Homo sapiens, UniProt P10635); test: Inhibition of CYP2D6 (unknown origin) at 10 uM relative to control; assay type: ADME
CYP2D6, sequence (P10635 whole entry): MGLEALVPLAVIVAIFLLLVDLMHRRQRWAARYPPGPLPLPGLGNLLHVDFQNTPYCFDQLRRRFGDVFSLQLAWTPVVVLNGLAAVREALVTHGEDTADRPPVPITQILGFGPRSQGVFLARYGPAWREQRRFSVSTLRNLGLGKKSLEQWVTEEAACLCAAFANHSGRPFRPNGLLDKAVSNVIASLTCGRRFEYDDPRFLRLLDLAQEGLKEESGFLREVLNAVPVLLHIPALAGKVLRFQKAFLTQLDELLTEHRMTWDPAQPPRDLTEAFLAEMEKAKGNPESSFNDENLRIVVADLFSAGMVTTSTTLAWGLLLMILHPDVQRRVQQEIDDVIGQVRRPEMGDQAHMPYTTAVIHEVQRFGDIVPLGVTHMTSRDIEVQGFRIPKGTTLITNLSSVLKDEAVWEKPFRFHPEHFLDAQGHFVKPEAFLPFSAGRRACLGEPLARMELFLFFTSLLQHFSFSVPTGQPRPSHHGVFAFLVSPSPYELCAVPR

[7] = Cmax in F344 rat at 60 mg/kg, po; assay type: ADME, organism-based; parameters: dose 60 mg/kg, route oral; conditions: in vivo
[8] = AUC (0 to 8 hrs) in F344 rat at 60 mg/kg, po; assay type: ADME, organism-based; parameters: time < 8 hr, dose 60 mg/kg, route oral; conditions: in vivo
[9] = AUC (0 to 8 hrs) in F344 rat at 30 mg/kg, po; assay type: ADME, organism-based; parameters: time < 8 hr, dose 30 mg/kg, route oral; conditions: in vivo
[10] = Cmax in F344 rat at 30 mg/kg, po; assay type: ADME, organism-based; parameters: dose 30 mg/kg, route oral; conditions: in vivo
Rattus norvegicus [11] = test: Bone anabolic activity in ovariectomized F344 rat assessed as increase in areal bone mineral density in proximal femur at 30 mg/kg/day, po administered for 5 weeks measured post-last dose by dual energy X-ray absorptiometry; assay type: functional, organism-based
Rattus norvegicus [12] = test: Bone anabolic activity in ovariectomized F344 rat assessed as increase in areal bone mineral density in distal femur at 30 mg/kg/day, po administered for 5 weeks measured post-last dose by dual energy X-ray absorptiometry; assay type: functional, organism-based
Rattus norvegicus [13] = test: Bone anabolic activity in ovariectomized F344 rat assessed as increase in areal bone mineral density in total femur at 30 mg/kg/day, po administered for 5 weeks measured post-last dose by dual energy X-ray absorptiometry; assay type: functional, organism-based

Structure (SMILES): NC(=O)c1sc2nccc(OC3CCCCC3)c2c1N
remaining at 0.5 h [2]: 2% | solubility [3]: 28 µg/mL (≈ 96.1 µM) | remaining at 0.5 h [4]: 1% | EC200 [1]: 0.14 µg/mL

Structure (SMILES): C[C@H]1CCCC[C@@H]1Oc1ccnc2sc(C(N)=O)c(N)c12 (relative stereo)
remaining at 0.5 h [2]: 7% | solubility [3]: 42 µg/mL (≈ 138 µM) | remaining at 0.5 h [4]: 20% | EC200 [1]: 0.045 µg/mL

Structure (SMILES): CCOc1ccnc2sc(C(N)=O)c(N)c12
EC200 [1]: 0.27 µg/mL

Structure (SMILES): NC(=O)c1sc2nccc(Oc3ccccc3)c2c1N
activity at 100 µM (CYP3A4 [5]): 93% | inhibition at 10 µM (CYP3A4 [6]): 9% | inhibition at 10 µM (CYP2C19): 15% | remaining at 0.5 h [2]: 36% | inhibition at 10 µM (CYP2C9): 13% | solubility [3]: 6.6 µg/mL (≈ 23.1 µM) | remaining at 0.5 h [4]: 11% | inhibition at 10 µM (CYP1A2): 41% | EC200 [1]: 0.046 µg/mL | inhibition at 10 µM (CYP2D6): 5%

Structure (SMILES): CN1CCC(Oc2ccnc3sc(C(N)=O)c(N)c23)CC1
EC200 [1]: > 1 µg/mL

Structure (SMILES): COc1ccc(Oc2ccnc3sc(C(N)=O)c(N)c23)cc1
EC200 [1]: 0.02 µg/mL

Structure (SMILES): N#Cc1ccc(Oc2ccnc3sc(C(N)=O)c(N)c23)cc1
EC200 [1]: 0.227 µg/mL

Structure (SMILES): CC[C@H]1CC[C@H](Oc2ccnc3sc(C(N)=O)c(N)c23)CC1
EC200 [1]: > 0.3 µg/mL

Structure (SMILES): NC(=O)c1sc2nccc(SC3CCCCC3)c2c1N
EC200 [1]: > 1 µg/mL

Structure (SMILES): CC(C)Oc1ccnc2sc(C(N)=O)c(N)c12
EC200 [1]: 0.72 µg/mL

Structure (SMILES): NC(=O)c1sc2nccc(Oc3ccc(Cl)cc3)c2c1N
EC200 [1]: 0.021 µg/mL

Structure (SMILES): NC(=O)c1sc2nccc(Oc3ccccc3Cl)c2c1N
EC200 [1]: 0.008 µg/mL

Structure (SMILES): C[C@@H]1CCC[C@H](Oc2ccnc3sc(C(N)=O)c(N)c23)C1 (relative stereo)
EC200 [1]: > 1 µg/mL

Structure (SMILES): NC(=O)c1sc2nccc(OC3CCOCC3)c2c1N
activity at 100 µM (CYP3A4 [5]): 89% | inhibition at 10 µM (CYP3A4 [6]): 2% | inhibition at 10 µM (CYP2C19): 1% | remaining at 0.5 h [2]: 85% | inhibition at 10 µM (CYP2C9): 1% | AUC(0-t) at 8 h [9]: 29800 ng·h/mL | Cmax [10]: 10400 ng/mL | solubility [3]: 180 µg/mL (≈ 614 µM) | Activity (Rattus norvegicus [11]): Active | Activity (Rattus norvegicus [12]): Active | Activity (Rattus norvegicus [13]): Active | remaining at 0.5 h [4]: 92% | inhibition at 10 µM (CYP1A2): 11% | EC200 [1]: 0.25 µg/mL | inhibition at 10 µM (CYP2D6): 0%

Structure (SMILES): COc1ccnc2sc(C(N)=O)c(N)c12
EC200 [1]: > 1 µg/mL

Structure (SMILES): CC(C)c1ccc(Oc2ccnc3sc(C(N)=O)c(N)c23)cc1
EC200 [1]: > 0.3 µg/mL

Structure (SMILES): C[C@H]1COCC[C@@H]1Oc1ccnc2sc(C(N)=O)c(N)c12
EC200 [1]: 0.27 µg/mL

Structure (SMILES): C[C@H]1CC[C@@H](Oc2ccnc3sc(C(N)=O)c(N)c23)CC1
EC200 [1]: > 1 µg/mL

Structure (SMILES): C[C@H]1CC[C@H](Oc2ccnc3sc(C(N)=O)c(N)c23)CC1
EC200 [1]: 0.037 µg/mL

Structure (SMILES): COC(=O)c1ccc(Oc2ccnc3sc(C(N)=O)c(N)c23)cc1
EC200 [1]: 0.09 µg/mL

Structure (SMILES): NC(=O)c1sc2nccc(Oc3cccc(Cl)c3)c2c1N
EC200 [1]: 0.149 µg/mL

Structure (SMILES): CN(C)c1ccnc2sc(C(N)=O)c(N)c12
inhibition at 10 µM (CYP3A4 [6]): 0% | inhibition at 10 µM (CYP2C19): 0% | inhibition at 10 µM (CYP2C9): 0% | inhibition at 10 µM (CYP1A2): 61% | EC200 [1]: 0.17 µg/mL | inhibition at 10 µM (CYP2D6): 1%

Structure (SMILES): NC(=O)c1sc2nccc(N3CCCN(c4ccccc4)CC3)c2c1N
activity at 100 µM (CYP3A4 [5]): 28% | inhibition at 10 µM (CYP3A4 [6]): 49% | inhibition at 10 µM (CYP2C19): 96% | inhibition at 10 µM (CYP2C9): 71% | inhibition at 10 µM (CYP1A2): 14% | inhibition at 10 µM (CYP2D6): 34%

Other lines, results leading:

EC200 [1]: > 0.3 µg/mL
Structure (SMILES): CN(C)C(=O)c1ccc(Oc2ccnc3sc(C(N)=O)c(N)c23)cc1

EC200 [1]: 0.036 µg/mL
Structure (SMILES): CCc1ccc(Oc2ccnc3sc(C(N)=O)c(N)c23)cc1

EC200 [1]: 0.201 µg/mL
Structure (SMILES): CCc1ccccc1Oc1ccnc2sc(C(N)=O)c(N)c12

activity at 100 µM (CYP3A4 [5]): 25% | inhibition at 10 µM (CYP3A4 [6]): 40% | inhibition at 10 µM (CYP2C19): 11% | remaining at 0.5 h [2]: 11% | inhibition at 10 µM (CYP2C9): 30% | solubility [3]: 0.2 µg/mL (≈ 0.447 µM) | remaining at 0.5 h [4]: 25% | inhibition at 10 µM (CYP1A2): 6% | EC200 [1]: 0.0004 µg/mL | inhibition at 10 µM (CYP2D6): 15%
Structure (SMILES): Cc1cc(Oc2ccc(CCCC(=O)N(C)C)cc2Cl)c2c(N)c(C(N)=O)sc2n1

EC200 [1]: 0.01 µg/mL
Structure (SMILES): CN(C)C(=O)CCc1ccc(Oc2ccnc3sc(C(N)=O)c(N)c23)cc1

activity at 100 µM (CYP3A4 [5]): 47% | inhibition at 10 µM (CYP3A4 [6]): 20% | inhibition at 10 µM (CYP2C19): 10% | remaining at 0.5 h [2]: 12% | Cmax [7]: 96 ng/mL | AUC(0-t) at 8 h [8]: 591 ng·h/mL | inhibition at 10 µM (CYP2C9): 17% | solubility [3]: 0.3 µg/mL (≈ 0.697 µM) | remaining at 0.5 h [4]: 60% | inhibition at 10 µM (CYP1A2): 10% | EC200 [1]: 0.0005 µg/mL | inhibition at 10 µM (CYP2D6): 10%
Structure (SMILES): Cc1cc(Oc2ccc(CCCC(=O)N(C)C)cc2F)c2c(N)c(C(N)=O)sc2n1

EC200 [1]: 0.008 µg/mL
Structure (SMILES): COc1ccc(Oc2ccnc3sc(C(N)=O)c(N)c23)c(Cl)c1

EC200 [1]: 0.022 µg/mL
Structure (SMILES): NC(=O)c1sc2nccc(Oc3ccccc3F)c2c1N

EC200 [1]: 0.0011 µg/mL
Structure (SMILES): Cc1cc(Oc2ccc(CCCC(=O)N(C)C)cc2)c2c(N)c(C(N)=O)sc2n1

EC200 [1]: 0.014 µg/mL
Structure (SMILES): NC(=O)c1sc2nccc(Oc3ccc(Cl)cc3Cl)c2c1N

EC200 [1]: 0.114 µg/mL
Structure (SMILES): COc1ccccc1Oc1ccnc2sc(C(N)=O)c(N)c12

EC200 [1]: 0.004 µg/mL
Structure (SMILES): CN(C)C(=O)CCCc1ccc(Oc2ccnc3sc(C(N)=O)c(N)c23)cc1

EC200 [1]: 0.058 µg/mL
Structure (SMILES): CN(C)CCc1ccc(Oc2ccnc3sc(C(N)=O)c(N)c23)cc1

activity at 100 µM (CYP3A4 [5]): 88% | inhibition at 10 µM (CYP3A4 [6]): 0% | inhibition at 10 µM (CYP2C19): 8% | remaining at 0.5 h [2]: 75% | Cmax [7]: 1540 ng/mL | AUC(0-t) at 8 h [8]: 3580 ng·h/mL | inhibition at 10 µM (CYP2C9): 7% | solubility [3]: 39 µg/mL (≈ 118 µM) | remaining at 0.5 h [4]: 93% | inhibition at 10 µM (CYP1A2): 1% | EC200 [1]: 0.025 µg/mL | inhibition at 10 µM (CYP2D6): 3%
Structure (SMILES): NC(=O)c1sc2nccc(Oc3ccc(CCO)cc3)c2c1N

EC200 [1]: 0.023 µg/mL
Structure (SMILES): CN(C)C(=O)COc1ccc(Oc2ccnc3sc(C(N)=O)c(N)c23)cc1
